Like-named read-outs stand apart in the source and are kept apart here.
Tests used:
[1] = biological target: T1, human P2X2/3 receptor (Homo sapiens, UniProt P56373+Q9UBL9); assay: P2X3/P2X2/3 FLIPR (Fluorometric Imaging Plate Reader) Assay, P2X2/3; assay type: cell-based
T1 construct: expressed in transfected cells; host or cells: CHO-K1
T1 sequence (Q9UBL9 1-471): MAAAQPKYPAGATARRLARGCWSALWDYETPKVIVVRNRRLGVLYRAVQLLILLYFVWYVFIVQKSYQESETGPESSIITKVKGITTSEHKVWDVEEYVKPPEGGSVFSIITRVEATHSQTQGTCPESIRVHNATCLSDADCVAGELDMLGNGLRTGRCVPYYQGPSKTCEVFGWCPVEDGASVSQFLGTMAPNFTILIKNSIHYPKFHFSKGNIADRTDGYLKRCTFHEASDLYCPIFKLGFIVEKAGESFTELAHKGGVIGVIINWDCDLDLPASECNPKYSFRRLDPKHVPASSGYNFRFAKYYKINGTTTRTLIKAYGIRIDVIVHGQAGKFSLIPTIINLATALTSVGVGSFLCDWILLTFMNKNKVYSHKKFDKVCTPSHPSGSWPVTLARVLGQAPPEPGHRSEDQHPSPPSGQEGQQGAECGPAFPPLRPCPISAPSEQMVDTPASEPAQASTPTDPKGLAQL
T1 sequence (P56373 1-397): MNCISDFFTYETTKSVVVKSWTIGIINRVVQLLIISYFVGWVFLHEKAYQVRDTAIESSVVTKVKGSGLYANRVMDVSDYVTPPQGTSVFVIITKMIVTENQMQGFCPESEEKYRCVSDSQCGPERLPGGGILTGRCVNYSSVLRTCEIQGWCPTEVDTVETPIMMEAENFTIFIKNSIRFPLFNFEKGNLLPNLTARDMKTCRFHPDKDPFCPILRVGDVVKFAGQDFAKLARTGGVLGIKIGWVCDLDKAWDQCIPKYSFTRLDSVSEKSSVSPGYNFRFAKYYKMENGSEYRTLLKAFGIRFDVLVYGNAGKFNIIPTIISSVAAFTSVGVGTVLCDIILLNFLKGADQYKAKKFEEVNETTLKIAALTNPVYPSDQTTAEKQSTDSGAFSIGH
Protocol: (§1) P2X3/P2X2/3 FLIPR (Fluorometric Imaging Plate Reader) Assay
(§2) CHO-K1 cells were transfected with cloned rat P2X3 or human P2X2/3 receptor subunits and passaged in flasks. 18-24 hours before the FLIPR experiment, cells were released from their flasks, centrifuged, and resuspended in nutrient medium at 2.5×10^5 cells/ml. The cells were aliquoted into black-walled 96-well plates at a density of 50,000 cells/well and incubated overnight in 5% CO2 at 37° C. On the day of the experiment, cells were washed in FLIPR buffer (calcium- and magnesium-free Hank's balanced salt solution, 10 mM HEPES, 2 mM CaCl2, 2.5 mM probenecid; FB). Each well received 100 μl FB and 100 μl of the fluorescent dye Fluo-3 AM [2 μM final conc.]. After a 1 hour dye loading incubation at 37° C., the cells were washed 4 times with FB, and a final 75 μl/well FB was left in each well.
(§3) Test compounds (dissolved in DMSO at 10 mM and serially diluted with FB) or vehicle were added to each well (25 μl of a 4× solution) and allowed to equilibrate for 20 minutes at room temperature. The plates were then placed in the FLIPR and a baseline fluorescence measurement (excitation at 488 nm and emission at 510-570 nm) was obtained for 10 seconds before a 100 μl/well agonist or vehicle addition. The agonist was a 2× solution of α,β-meATP producing a final concentration of 1 μM (P2X3) or 5 μM (P2X2/3). Fluorescence was measured for an additional 2 minutes at 1 second intervals after agonist addition. A final addition of ionomycin (5 μM, final concentration) was made to each well of the FLIPR test plate to establish cell viability and maximum fluorescence of dye-bound cytosolic calcium. Peak fluorescence in response to the addition of α,β-meATP (in the absence and presence of test compounds) was measured and inhibition curves generated using nonlinear regression. PPADS, a standard P2X antagonist, was used as a positive control.

[2] = biological target: T2, rat P2X3 receptor (Rattus norvegicus, UniProt P49654); assay: P2X3/P2X2/3 FLIPR (Fluorometric Imaging Plate Reader) Assay, P2X3; assay type: cell-based; conditions: for Ki: CHO-K1 cells transfected with rat P2X3, agonist α,β-meATP 1 μM, Table 1, read-out: P2X3 pKi (converted)
T2 construct: expressed in transfected cells; host or cells: CHO-K1
T2 sequence (P49654 1-397): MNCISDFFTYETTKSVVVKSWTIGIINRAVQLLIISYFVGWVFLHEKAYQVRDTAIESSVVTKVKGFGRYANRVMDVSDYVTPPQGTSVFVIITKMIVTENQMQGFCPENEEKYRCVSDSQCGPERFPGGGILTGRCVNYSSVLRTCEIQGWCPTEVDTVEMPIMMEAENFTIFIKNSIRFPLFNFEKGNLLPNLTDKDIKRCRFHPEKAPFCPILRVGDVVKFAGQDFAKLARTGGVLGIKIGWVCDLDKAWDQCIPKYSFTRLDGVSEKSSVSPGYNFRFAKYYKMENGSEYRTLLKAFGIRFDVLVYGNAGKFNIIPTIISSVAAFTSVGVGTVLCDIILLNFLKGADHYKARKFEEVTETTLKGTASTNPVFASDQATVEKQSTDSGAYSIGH
Protocol: as §1, §2, §3

[3] = CHO-K1 cells transfected with human P2X2/3, agonist α,β-meATP 5 μM, Table 1, read-out: P2X2/3 pKi (converted)

Ki [1, 3] [µM] | Ki [2] [µM] | IC50 ([2]; text b666, CHO-K1 cells, α,β-meATP 1 μM, read-out: pIC50 for the P2X3 receptor (converted)) [µM] | Ki ([1]; text b666, CHO-K1 cells, α,β-meATP 5 μM, read-out: pKi for the P2X2/3 receptor (converted)) [µM] | SMILES
0.295 | 0.00355 | – | – | Cc1ccc(-c2cc(C(=O)NC(C)CO)cc(-n3ncnc3C(C)C)c2)cc1 (stereo not drawn) [Compound 16, 5-(5-Isopropyl-[1,2,4]triazol-1-yl)-4′-methyl-biphenyl-3-carboxylic acid (2-hydroxy-1-methyl-ethyl)-amide]
0.141 | 0.00288 | – | – | Cc1ccc(-c2cc(C(=O)N[C@@H](C)CO)cc(-n3ncnc3C(C)C)c2)cc1 [Compound 17, 5-(5-Isopropyl-[1,2,4]triazol-1-yl)-4′-methyl-biphenyl-3-carboxylic acid ((S)-2-hydroxy-1-methyl-ethyl)-amide]
0.024 | 0.00309 | – | – | Cc1ccc(-c2cc(C(=O)NC(C)c3cnccn3)cc(-n3ncnc3C(C)C)c2)cc1 (stereo not drawn) [Compound 18, 5-(5-Isopropyl-[1,2,4]triazol-1-yl)-4′-methyl-biphenyl-3-carboxylic acid (1-pyrazin-2-yl-ethyl)-amide]
1.29 | 0.00589 | – | – | Cc1ccc(-c2cc(C(=O)NC(C)c3cnccn3)cc(-n3cnnc3C(C)C)c2)cc1 (stereo not drawn) [Compound 19]
10 | 0.372 | – | – | COC[C@@H](C)NC(=O)c1cc(-c2ccc(C)cc2)cc(-n2cnnc2C(C)C)c1 [Compound 20, 5-(3-Isopropyl-[1,2,4]triazol-4-yl)-4′-methyl-biphenyl-3-carboxylic acid ((R)-2-methoxy-1-methyl-ethyl)-amide]
10 | 0.977 | – | – | Cc1ccc(-c2cc(C(=O)N[C@@H](C)CO)cc(-n3cnnc3C(C)C)c2)cc1 [Compound 21, 5-(3-Isopropyl-[1,2,4]triazol-4-yl)-4′-methyl-biphenyl-3-carboxylic acid ((S)-2-hydroxy-1-methyl-ethyl)-amide]
0.355 | 0.00575 | – | – | Cc1ccc(-c2cc(C(=O)NC(C)CO)cc(-n3nncc3C(C)C)c2)c(F)c1 (stereo not drawn) [Compound 23, 2′-Fluoro-5-(5-isopropyl-[1,2,3]triazol-1-yl)-4′-methyl-biphenyl-3-carboxylic acid (2-hydroxy-1-methyl-ethyl)-amide]
0.324 | 0.00331 | – | – | Cc1ccc(-c2cc(C(=O)N[C@@H](C)CO)cc(-n3nncc3C(C)C)c2)c(F)c1 [Compound 24, 2′-Fluoro-5-(5-isopropyl-[1,2,3]triazol-1-yl)-4′-methyl-biphenyl-3-carboxylic acid ((S)-2-hydroxy-1-methyl-ethyl)-amide]
0.0724 | 0.012 | – | – | Cc1ccc(-c2cc(C(=O)NC(C)c3cnccn3)cc(-n3nncc3C(C)C)c2)c(F)c1 (stereo not drawn) [Compound 25, 2′-Fluoro-5-(5-isopropyl-[1,2,3]triazol-1-yl)-4′-methyl-biphenyl-3-carboxylic acid (1-pyrazin-2-yl-ethyl)-amide]
10 | 0.155 | – | – | Cc1ccc(-c2cc(C(=O)NC(C)CO)cc(-n3cnnc3C(C)C)c2)cc1 (stereo not drawn) [Compound 26, 5-(3-Isopropyl-[1,2,4]triazol-4-yl)-4′-methyl-biphenyl-3-carboxylic acid (2-hydroxy-1-methyl-ethyl)-amide]
10 | 0.0646 | – | – | Cc1ccc(-c2cc(C(=O)NC(C)CO)cc(-n3nc(C)nc3C(C)C)c2)cc1 (stereo not drawn) [Compound 28, 5-(5-Isopropyl-3-methyl-[1,2,4]triazol-1-yl)-4′-methyl-biphenyl-3-carboxylic acid (2-hydroxy-1-methyl-ethyl)-amide]
3.63 | 0.0468 | – | – | Cc1ccc(-c2cc(C(=O)N[C@@H](C)CO)cc(-n3nc(C)nc3C(C)C)c2)cc1 [Compound 29, 5-(5-Isopropyl-3-methyl-[1,2,4]triazol-1-yl)-4′-methyl-biphenyl-3-carboxylic acid ((S)-2-hydroxy-1-methyl-ethyl)-amide]
0.135 | 0.00457 | – | – | Cc1ccc(-c2cc(C(=O)NC(C)c3cnccn3)cc(-n3nc(C)nc3C(C)C)c2)cc1 (stereo not drawn) [Compound 30, 5-(5-Isopropyl-3-methyl-[1,2,4]triazol-1-yl)-4′-methyl-biphenyl-3-carboxylic acid (1-pyrazin-2-yl-ethyl)-amide]
0.398 | 0.0355 | – | – | Cc1ccc(-c2cc(C(=O)NC(C)c3cnccn3)cc(-n3c(C)nnc3C(C)C)c2)cc1 (stereo not drawn) [Compound 31, 5-(3-Isopropyl-5-methyl-[1,2,4]triazol-4-yl)-4′-methyl-biphenyl-3-carboxylic acid (1-pyrazin-2-yl-ethyl)-amide]
10 | 0.427 | – | – | COC[C@@H](C)NC(=O)c1cc(-c2ccc(C)cc2)cc(-n2c(C)nnc2C(C)C)c1 [Compound 32, 5-(3-Isopropyl-5-methyl-[1,2,4]triazol-4-yl)-4′-methyl-biphenyl-3-carboxylic acid ((R)-2-methoxy-1-methyl-ethyl)-amide]
1.38 | 0.00407 | – | – | COC[C@@H](C)NC(=O)c1cc(-c2ccc(C)cc2F)cc(-n2ncnc2C(C)C)c1 [Compound 33, 2′-Fluoro-5-(5-isopropyl-[1,2,4]triazol-1-yl)-4′-methyl-biphenyl-3-carboxylic acid ((R)-2-methoxy-1-methyl-ethyl)-amide]
0.427 | 0.00324 | – | – | Cc1ccc(-c2cc(C(=O)NC(C)CO)cc(-n3ncnc3C(C)C)c2)c(F)c1 (stereo not drawn) [Compound 34, 2′-Fluoro-5-(5-isopropyl-[1,2,4]triazol-1-yl)-4′-methyl-biphenyl-3-carboxylic acid (2-hydroxy-1-methyl-ethyl)-amide]
0.417 | 0.0017 | ~0.0017 | – | Cc1ccc(-c2cc(C(=O)N[C@@H](C)CO)cc(-n3ncnc3C(C)C)c2)c(F)c1 [Compound 35, 2′-Fluoro-5-(5-isopropyl-[1,2,4]triazol-1-yl)-4′-methyl-biphenyl-3-carboxylic acid ((S)-2-hydroxy-1-methyl-ethyl)-amide]
0.0229 | 0.00372 | – | ~0.0229 | Cc1ccc(-c2cc(C(=O)NC(C)c3cnccn3)cc(-n3ncnc3C(C)C)c2)c(F)c1 (stereo not drawn) [Compound 36, 2′-Fluoro-5-(5-isopropyl-[1,2,4]triazol-1-yl)-4′-methyl-biphenyl-3-carboxylic acid (1-pyrazin-2-yl-ethyl)-amide]
6.76 | 0.38 | – | – | CCn1nncc1-c1cc(C(=O)N[C@H](C)COC)cc(-c2ccc(C)cc2)c1 [Compound 37, 5-(3-Ethyl-3H-[1,2,3]triazol-4-yl)-4′-methyl-biphenyl-3-carboxylic acid ((R)-2-methoxy-1-methyl-ethyl)-amide]

From US8440708B2, “Triazole-substituted arylamides as P2X3 and P2X2/3 antagonists” (Roche Palo Alto LLC, priority 2007, dated 2013)
